From US20240158392A1 (Janssen Biotech, Inc., priority 2021, published 2024)

These compounds were tested against SIK2 (Homo sapiens, UniProt Q9H0K1) (assay: SIK2 Enzymatic Assay High Version 2 (High ATP)).
Format: biochemical
Outline: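 At room temperature, enzyme (6 nM, 2× final) was preincubated with compound for 30 min, then 6 mM ATP and 400 μM HDAC5tide (both 2× final) were added for 2 h. ADP formed was measured by ADP-Glo Max (2 h reagent, 1 h detection) using luminescence.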

Chain of SIK2 (Q9H0K1 whole entry, species assumed): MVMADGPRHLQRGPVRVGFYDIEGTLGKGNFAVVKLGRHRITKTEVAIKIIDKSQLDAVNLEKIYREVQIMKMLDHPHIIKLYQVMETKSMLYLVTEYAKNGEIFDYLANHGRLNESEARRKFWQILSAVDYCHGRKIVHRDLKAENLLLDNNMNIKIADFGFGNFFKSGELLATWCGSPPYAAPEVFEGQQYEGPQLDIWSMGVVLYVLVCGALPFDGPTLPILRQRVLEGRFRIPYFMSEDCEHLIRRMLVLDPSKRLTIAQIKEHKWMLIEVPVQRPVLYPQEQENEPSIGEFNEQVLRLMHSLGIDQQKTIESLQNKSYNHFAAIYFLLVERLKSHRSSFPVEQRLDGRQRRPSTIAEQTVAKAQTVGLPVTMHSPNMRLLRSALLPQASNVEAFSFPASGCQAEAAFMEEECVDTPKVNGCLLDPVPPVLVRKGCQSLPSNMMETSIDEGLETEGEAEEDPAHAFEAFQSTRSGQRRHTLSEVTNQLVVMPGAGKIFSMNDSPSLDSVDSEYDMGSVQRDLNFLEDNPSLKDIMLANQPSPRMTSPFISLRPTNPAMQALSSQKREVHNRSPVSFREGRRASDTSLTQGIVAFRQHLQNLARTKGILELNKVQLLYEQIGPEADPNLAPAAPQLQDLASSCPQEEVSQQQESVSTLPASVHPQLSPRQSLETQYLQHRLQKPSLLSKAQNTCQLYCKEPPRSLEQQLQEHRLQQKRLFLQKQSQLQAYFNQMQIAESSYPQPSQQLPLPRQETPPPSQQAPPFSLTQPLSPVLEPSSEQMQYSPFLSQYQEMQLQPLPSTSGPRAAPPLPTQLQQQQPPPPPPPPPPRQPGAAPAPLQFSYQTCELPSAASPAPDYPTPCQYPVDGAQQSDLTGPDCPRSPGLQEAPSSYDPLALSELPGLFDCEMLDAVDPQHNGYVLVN

Compound | IC50 [nM]
Cc1cc(-c2ccn3nc(Nc4ccc(C(N)=O)cn4)cc3c2)c(O[C@H]2C[C@H]3COC[C@@H](C2)N3)cn1 [Example 376, 6-[[5-[2-methyl-5-[[(1R,5S,7s)-3-oxa-9-azabicyclo[3.3.1]nonan-7-yl]oxy]-4-pyridyl]pyrazolo[1,5-a]pyridin-2-yl]amino]pyridine-3-carboxamide] | 1.36
CCCNC(=O)c1ccc(Nc2cc3cc(-c4cc(C)ncc4O[C@H]4C[C@H]5COC[C@@H](C4)N5)ccn3n2)nc1 [Example 377, 6-[[5-[2-methyl-5-[[(1R,5S,7s)-3-oxa-9-azabicyclo[3.3.1]nonan-7-yl]oxy]-4-pyridyl]pyrazolo[1,5-a]pyridin-2-yl]amino]-N-propyl-pyridine-3-carboxamide] | < 0.847
Cc1cc(-c2ccn3nc(Nc4cc(C(F)(F)F)ccn4)cc3c2)c(O[C@H]2C[C@H]3COC[C@@H](C2)N3)cn1 [Example 378, 5-[2-methyl-5-[[(1S,5R,7s)-3-oxa-9-azabicyclo[3.3.1]nonan-7-yl]oxy]-4-pyridyl]-N-[4-(trifluoromethyl)-2-pyridyl]pyrazolo[1,5-a]pyridin-2-amine] | < 0.847
Cc1cc(-c2ccn3nc(Nc4cc(C(F)(F)F)n(C)n4)cc3c2)c(O[C@H]2C[C@H]3COC[C@@H](C2)N3)cn1 [Example 379, 5-[2-methyl-5-[[(1S,5R,7s)-3-oxa-9-azabicyclo[3.3.1]nonan-7-yl]oxy]-4-pyridyl]-N-[1-methyl-5-(trifluoromethyl)pyrazol-3-yl]pyrazolo[1,5-a]pyridin-2-amine] | 1.25
Cc1cc(-c2ccn3nc(Nc4cn(C)nn4)cc3c2)c(O[C@H]2C[C@H]3COC[C@@H](C2)N3)cn1 [Example 380, 5-[2-methyl-5-[[(1R,5S,7s)-3-oxa-9-azabicyclo[3.3.1]nonan-7-yl]oxy]-4-pyridyl]-N-(1-methyltriazol-4-yl)pyrazolo[1,5-a]pyridin-2-amine] | < 0.847
Cc1cnc(Nc2cc3cc(-c4cc(C)ncc4O[C@H]4C[C@H]5COC[C@@H](C4)N5)ccn3n2)cn1 [Example 381, 5-[2-methyl-5-[[(1S,5R,7s)-3-oxa-9-azabicyclo[3.3.1]nonan-7-yl]oxy]-4-pyridyl]-N-(5-methylpyrazin-2-yl)pyrazolo[1,5-a]pyridin-2-amine] | < 0.847
Cc1cc(-c2ccn3nc(Nc4cc(C)nc(C)n4)cc3c2)c(O[C@H]2C[C@H]3COC[C@@H](C2)N3)cn1 [Example 382, N-(2,6-dimethylpyrimidin-4-yl)-5-[2-methyl-5-[[(1S,5R,7s)-3-oxa-9-azabicyclo[3.3.1]nonan-7-yl]oxy]-4-pyridyl]pyrazolo[1,5-a]pyridin-2-amine] | < 0.847
Cc1cc(-c2ccn3nc(Nc4ccc(C(=O)N(C)C)cn4)cc3c2)c(O[C@H]2C[C@H]3COC[C@@H](C2)N3)cn1 [Example 383, N,N-dimethyl-6-[[5-[2-methyl-5-[[(1S,5R,7s)-3-oxa-9-azabicyclo[3.3.1]nonan-7-yl]oxy]-4-pyridyl]pyrazolo[1,5-a]pyridin-2-yl]amino]pyridine-3-carboxamide] | 0.947
CCNC(=O)c1ccc(Nc2cc3cc(-c4cc(C)ncc4O[C@H]4C[C@H]5COC[C@@H](C4)N5)ccn3n2)nc1 [Example 384, N-ethyl-6-[[5-[2-methyl-5-[[(1S,5R,7s)-3-oxa-9-azabicyclo[3.3.1]nonan-7-yl]oxy]-4-pyridyl]pyrazolo[1,5-a]pyridin-2-yl]amino]pyridine-3-carboxamide] | 0.889
CCNC(=O)c1ccc(Nc2cc3cc(-c4cc(C)ncc4O[C@H]4C[C@H]5COC[C@@H](C4)N5)ccn3n2)nn1 [Example 385, N-ethyl-6-[[5-[2-methyl-5-[[(1S,5R,7s)-3-oxa-9-azabicyclo[3.3.1]nonan-7-yl]oxy]-4-pyridyl]pyrazolo[1,5-a]pyridin-2-yl]amino]pyridazine-3-carboxamide] | 1.2
CCNC(=O)c1cnc(Nc2cc3cc(-c4cc(C)ncc4O[C@H]4C[C@H]5COC[C@@H](C4)N5)ccn3n2)cn1 [Example 386, N-ethyl-5-[[5-[2-methyl-5-[[(1S,5R,7s)-3-oxa-9-azabicyclo[3.3.1]nonan-7-yl]oxy]-4-pyridyl]pyrazolo[1,5-a]pyridin-2-yl]amino]pyrazine-2-carboxamide] | 1.31
COCCNC(=O)c1ccc(Nc2cc3cc(-c4cc(C)ncc4O[C@H]4C[C@H]5COC[C@@H](C4)N5)ccn3n2)nc1 [Example 387, N-(2-methoxyethyl)-6-[[5-[2-methyl-5-[[(1S,5R,7s)-3-oxa-9-azabicyclo[3.3.1]nonan-7-yl]oxy]-4-pyridyl]pyrazolo[1,5-a]pyridin-2-yl]amino]pyridine-3-carboxamide] | 1
Cc1cc(-c2ccn3nc(Nc4ccc(C(=O)NC5CCOCC5)cn4)cc3c2)c(O[C@H]2C[C@H]3COC[C@@H](C2)N3)cn1 [Example 388, 6-[[5-[2-methyl-5-[[(1S,5R,7s)-3-oxa-9-azabicyclo[3.3.1]nonan-7-yl]oxy]-4-pyridyl]pyrazolo[1,5-a]pyridin-2-yl]amino]-N-tetrahydropyran-4-yl-pyridine-3-carboxamide] | 1.03
Cc1cc(-c2ccn3nc(Nc4ccc(C(=O)NCC(C)(C)C#N)cn4)cc3c2)c(O[C@H]2C[C@H]3COC[C@@H](C2)N3)cn1 [Example 389, N-(2-cyano-2-methyl-propyl)-6-[[5-[2-methyl-5-[[(1S,5R,7s)-3-oxa-9-azabicyclo[3.3.1]nonan-7-yl]oxy]-4-pyridyl]pyrazolo[1,5-a]pyridin-2-yl]amino]pyridine-3-carboxamide] | 1.02
Cc1cc(-c2ccn3nc(Nc4cnc(C(=O)NCC(C)(C)O)cn4)cc3c2)c(O[C@H]2C[C@H]3COC[C@@H](C2)N3)cn1 [Example 390, N-(2-hydroxy-2-methyl-propyl)-5-[[5-[2-methyl-5-[[(1S,5R,7s)-3-oxa-9-azabicyclo[3.3.1]nonan-7-yl]oxy]-4-pyridyl]pyrazolo[1,5-a]pyridin-2-yl]amino]pyrazine-2-carboxamide] | > 50000
Cc1cnc(Nc2cc3cc(-c4cc(C)ncc4O[C@H]4C[C@H]5COC[C@@H](C4)N5)ccn3n2)nc1 [Example 391, 5-(5-(((1R,5S,7s)-3-oxa-9-azabicyclo[3.3.1]nonan-7-yl)oxy)-2-methylpyridin-4-yl)-N-(5-methylpyrimidin-2-yl)pyrazolo[1,5-a]pyridin-2-amine] | < 0.847
Cc1cc(-c2ccn3nc(Nc4cnccn4)cc3c2)c(O[C@H]2C[C@H]3COC[C@@H](C2)N3)cn1 [Example 392, 5-[2-methyl-5-[[(1S,5R,7s)-3-oxa-9-azabicyclo[3.3.1]nonan-7-yl]oxy]-4-pyridyl]-N-pyrazin-2-yl-pyrazolo[1,5-a]pyridin-2-amine] | 1.07
Cc1cc(-c2ccn3nc(Nc4ccc(S(C)(=O)=O)cn4)cc3c2)c(O[C@H]2C[C@H]3COC[C@@H](C2)N3)cn1 [Example 393, 5-[2-methyl-5-[[(1R,5S,7s)-3-oxa-9-azabicyclo[3.3.1]nonan-7-yl]oxy]-4-pyridyl]-N-(5-methylsulfonyl-2-pyridyl)pyrazolo[1,5-a]pyridin-2-amine] | 1.31
Cc1cc(-c2ccn3nc(Nc4cccnn4)cc3c2)c(O[C@H]2C[C@H]3COC[C@@H](C2)N3)cn1 [Example 394, 5-[2-methyl-5-[[(1R,5S,7s)-3-oxa-9-azabicyclo[3.3.1]nonan-7-yl]oxy]-4-pyridyl]-N-pyridazin-3-yl-pyrazolo[1,5-a]pyridin-2-amine] | < 0.847
